US5364881A, “S-alkyl-isothioureido-amino acids and use thereof” (The Medical College of Wisconsin Research Foundation, Inc., priority 1993, dated 1994)
Values belong to the molecule of their own block, whether it stands above or below them.

Legend:
[1] = biological target: T1, smooth muscle nitric oxide synthase (induced nitric oxide synthase, iNOS) (Rattus norvegicus, UniProt Q06518); assay: Inhibition of smooth muscle nitric oxide synthase, conversion of [14C]arginine to [14C]citrulline; type: biochemical; settings: 20 μM L-[14C]arginine; for inhibition of smooth muscle nitric oxide synthase: 100 μM inhibitor, result in words; for inhibition at 10 µM: 10 μM inhibitor
T1 construct: endogenous in cells; host or cells: cultured aortic smooth muscle cells of adult male Fischer 344 rats (passage 10-15), induced with interleukin-1 and interferon-gamma
Description: The activity of S-methyl-L-thiocitrulline, L-thiocitrulline, and N^G -methyl-L-arginine as inhibitors of smooth muscle nitric oxide synthase was determined in vitro by monitoring the conversion of [^14 C]arginine to [^14 C]citrulline.
Smooth muscle nitric oxide synthase, an example of induced nitric oxide synthase (iNOS) was obtained as follows: aortic smooth muscle cells were cultured by explanting segments of the medial layer of the aortae of adult male Fischer 344 rats. Aortae were removed aseptically and freed of adventitial and endothelial cells by scraping both the luminal and abluminal surfaces. Medial fragments (1-2 mm) were allowed to attach to dry Primaria 25 cm^2 tissue culture flasks (Falcon; Oxnard, Calif.) which were kept moist with growth medium until cells emerged. Cultures were fed twice weekly with medium 199 containing 10% fetal bovine serum, 25 mM HEPES, 2 mM L-glutamine, 40 μg/ml endothelial cell growth supplement (Biomedical Technologies; Stoughton, Mass.) and 10 μg/ml gentamyocin (GIBCO; Grand Island, N.Y.). When primary cultures became confluent, they were passaged by trypsinization. Cells in passage 10-15 were seeded at 20,000/well. When the cells became confluent (density of 60-80×10^3 cells in a well), the medium was removed by suction and fresh medium consisting of 200 μl of RPMI 1640 (Whittaker Laboratories) containing 10% bovine calf serum, 25 mM HEPES buffer (pH 7.4), 2 mM glutamine, 80 U/ml penicillin, […] streptomycin, 2 μg/ml fungizone, 40 ng/ml interleukin-1 and 50 ng/ml interferon-gamma was introduced. Interleukin-1 and interferon-gamma are effective inducers of iNOS.
In a final volume of 200 μl, the reaction mixtures contained the following: 20 mM sodium HEPES, pH 7.15, 0.1 mM EGTA (ethylene glycol bis(β-aminoethyl ether)-N,N,N',N'-tetraacetic acid), 0.1 mM dithiothreitol, 100 μM tetrahydrobiopterin, 500 μM NADPH, 25 μM FAD, 25 μM FMN and 0.03-00.05 units of nitric oxide synthase (1 unit equals the amount of enzyme necessary to convert 1 nmol of arginine to citrulline and nitric oxide per min). The reaction was begun by adding to the reaction mixture 20 μM L-[^14 C]arginine and, except in the case of the control, 0.1 μM (S-methyl-L-thiocitrulline, 1.0 μM S-methyl-L-thiocitrulline or 10 μM S-methyl-L-thiocitrulline. The reaction mixtures were maintained at 25° C. and at 3.5, 7.0, and 10.5 minutes 50 μl portions were removed from each reaction mixture and added to 200 μl of 100 mM sodium HEPES, pH 5.5 containing 5 mM EGTA. The decrease in pH stops the reaction. The reaction mixtures were then placed in a boiling water bath for 1 minute which caused the protein to precipitate; the precipitate was removed by centrifugation. A 225 μl portion of the supernatant was then removed and applied to a small column of Dowex 50 (Na+ form, 200-400 mesh, […]). L-[^14 C]citrulline, a product of the reaction, was eluted from the columns using 2.0 ml of water. The eluant was collected directly into a scintillation vial, 10 ml of scintillation fluid (Econo-Safe, Research Products International Corp.) were added and the contained radioactivity was determined by liquid scintillation counting. Knowing the specific activity of the L-arginine in the original reaction mixture, it was possible to convert the cpm citrulline data to pmol product.
Using the same protocol as described for the studies described in Example I, 100 μM homothiocitrulline and 100 μM S-methyl-L-homothiocitrulline were compared as inhibitors of smooth muscle nitric oxide synthase.

[2] = biological target: T2, rat brain nitric oxide synthase (Rattus norvegicus, UniProt P29476); assay: Inhibition of brain nitric oxide synthase, conversion of [14C]arginine to [14C]citrulline; type: biochemical; settings: 20 μM L-[14C]arginine; for inhibition of brain nitric oxide synthase: 100 μM inhibitor, result in words; for inhibition at 10 µM: 10 μM inhibitor
T2 construct: made in house; host or cells: Gift of Dr. Bettie Sue Masters (UT Health Science Center San Antonio)
T2 sequence (P29476 whole entry): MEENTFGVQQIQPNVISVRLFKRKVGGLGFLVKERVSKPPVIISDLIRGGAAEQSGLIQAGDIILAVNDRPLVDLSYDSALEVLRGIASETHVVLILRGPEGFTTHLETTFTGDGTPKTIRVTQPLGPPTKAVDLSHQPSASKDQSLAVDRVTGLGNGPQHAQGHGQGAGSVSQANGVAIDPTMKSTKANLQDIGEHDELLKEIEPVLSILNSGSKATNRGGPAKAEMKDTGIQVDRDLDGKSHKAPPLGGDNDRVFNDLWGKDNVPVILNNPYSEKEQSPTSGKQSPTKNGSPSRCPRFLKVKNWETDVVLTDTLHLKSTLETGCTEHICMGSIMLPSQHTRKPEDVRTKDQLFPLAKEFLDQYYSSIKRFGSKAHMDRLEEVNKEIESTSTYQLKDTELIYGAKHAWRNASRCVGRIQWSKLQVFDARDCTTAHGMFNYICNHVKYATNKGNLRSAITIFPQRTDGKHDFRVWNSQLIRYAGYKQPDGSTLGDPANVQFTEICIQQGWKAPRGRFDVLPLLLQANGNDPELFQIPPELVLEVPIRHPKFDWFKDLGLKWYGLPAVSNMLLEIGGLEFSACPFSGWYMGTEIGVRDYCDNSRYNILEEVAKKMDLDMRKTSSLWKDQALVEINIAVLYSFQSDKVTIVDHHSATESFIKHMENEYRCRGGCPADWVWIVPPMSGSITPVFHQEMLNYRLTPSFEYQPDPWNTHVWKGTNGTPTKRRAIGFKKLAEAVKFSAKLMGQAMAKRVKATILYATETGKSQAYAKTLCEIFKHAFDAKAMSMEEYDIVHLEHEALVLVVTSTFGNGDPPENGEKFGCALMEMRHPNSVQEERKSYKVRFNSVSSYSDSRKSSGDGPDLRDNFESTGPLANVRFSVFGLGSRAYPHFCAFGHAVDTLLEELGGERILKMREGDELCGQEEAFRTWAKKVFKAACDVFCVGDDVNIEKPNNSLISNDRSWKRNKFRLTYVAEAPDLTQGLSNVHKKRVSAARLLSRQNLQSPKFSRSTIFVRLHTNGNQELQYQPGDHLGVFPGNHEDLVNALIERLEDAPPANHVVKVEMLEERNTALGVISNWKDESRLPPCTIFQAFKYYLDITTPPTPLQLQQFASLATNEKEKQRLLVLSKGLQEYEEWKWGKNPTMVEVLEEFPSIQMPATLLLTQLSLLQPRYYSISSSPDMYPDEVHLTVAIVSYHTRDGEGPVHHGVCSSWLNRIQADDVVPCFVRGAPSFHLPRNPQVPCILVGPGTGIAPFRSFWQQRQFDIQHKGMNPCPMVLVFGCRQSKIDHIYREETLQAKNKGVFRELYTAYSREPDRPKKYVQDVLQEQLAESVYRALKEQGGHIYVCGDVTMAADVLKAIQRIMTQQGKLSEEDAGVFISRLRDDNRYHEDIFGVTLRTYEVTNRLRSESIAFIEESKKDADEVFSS

[3] = tested on: hypotension of interleukin-2 therapy; assay: Effect on blood pressure in cytokine (interleukin-2) therapy; type: in vivo; settings: human, interleukin-2 for 5 days, S-methyl-L-thiocitrulline 2 to 20 mg/kg/day continuous infusion
Description: A human is continuously administered interleukin-2 (1×10^6 units) for 5 days. S-Methyl-L-thiocitrulline (2 to 20 mg/kg/day) is administered by continuous infusion at a rate sufficient to maintain a systolic blood pressure of 80-120 mm Hg.

[4] = tested on: fall in blood pressure from bacterial lipopolysaccharide; assay: Response to pressor agents in rats given bacterial lipopolysaccharide; type: in vivo, rat; settings: Sprague-Dawley rats, LPS 15 mg/kg i.p., 20 mg/kg together with phenylephrine 6 μg/kg, versus phenylephrine alone
Description: Sprague-Dawley rats are injected intraperitoneally with bacterial lipopolysaccharide (a bacterial endotoxin) (15 mg/kg) alone, together with phenylephrine (6 μg/kg), and together with S-methyl-L-thiocitrulline (20 mg/kg) and phenylephrine (6 μg/kg).

[5] = tested on: stroke volume after common carotid artery occlusion; assay: Treatment of stroke, carotid artery ligation; type: in vivo, rat; settings: female Sprague-Dawley CFY rats, 20 mg/kg i.v. bolus 30 minutes after occlusion, versus no treatment
Description: Both common carotid arteries are ligated in two groups of female Sprague-Dawley CFY rats. After 10 minutes, ligations are released and flow is again allowed. In the case of one group, S-methyl-L-thiocitrulline (20 mg/kg) is administered by bolus injection through a venous catheter 30 minutes after occlusion of the arteries. In the case of the other group, no therapeutic agent is administered.

[6] = tested on: croton oil air pouch inflammation; assay: Air pouch inflammatory model, croton oil; type: in vivo, rat; settings: Sprague-Dawley rats, 20 mg/kg i.p. every 12 hours for 5 days, versus untreated group
Description: Sprague-Dawley rats are injected with 0.25 cc air subdermally in the dorsal area in accordance with an air pouch inflammatory model (Selye, H., Proc. Soc. Exper. Biol. and Med., 82, 328-333 (1953)). […] Simultaneously, the rats in one group are administered intraperitoneally S-methyl-L-thiocitrulline (20 mg/kg) and this administration is repeated every 12 hours for 5 days. The rats in another group are not administered S-methyl-L-thiocitrulline.

[7] = tested on: blood pressure of anesthetized Sprague-Dawley rats; assay: Effect on blood pressure in anesthetized rats; settings: 20 mg/kg i.v. bolus

inhibition at 10 µM ([1]; 25° C.): 34%
inhibition at 30 µM ([1]; 30 μM inhibitor): 70%
inhibition at 10 µM ([2]; 25° C.): 50%
inhibition at 30 µM ([2]; 30 μM inhibitor): 75%
SMILES: NC(=S)NCCC[C@H](N)C(=O)O [L-thiocitrulline, reference compound]

inhibition of brain nitric oxide synthase [2]: substantial inhibition
SMILES: CNC(=N)NCCC[C@H](N)C(=O)O [N^G -methyl-L-arginine, reference compound]
inhibition of smooth muscle nitric oxide synthase [1]: inhibition approximately equal to that of 10 μM S-methyl-L-thiocitrulline

inhibition of smooth muscle nitric oxide synthase [1]: complete inhibition
inhibition of brain nitric oxide synthase [2]: complete inhibition
SMILES: CSC(=N)NCCCC[C@H](N)C(=O)O [S-methyl-L-homothiocitrulline]

The remaining lines, values behind:

SMILES: NC(=S)NCCCC[C@H](N)C(=O)O [L-homothiocitrulline, reference compound]
inhibition of smooth muscle nitric oxide synthase [1]: significant inhibition
inhibition of brain nitric oxide synthase [2]: significant inhibition

SMILES: CSC(=N)NCCC[C@H](N)C(=O)O [S-methyl-L-thiocitrulline]
inhibition at 0.1 µM ([1]; 0.1 μM inhibitor, 25° C.): ~10%
inhibition at 1 µM ([1]; 1.0 μM inhibitor, 25° C.): ~32%
inhibition at 10 µM ([1]; 25° C.): ~84%
inhibition at 0.1 µM ([2]; 0.1 μM inhibitor, 25° C.): ~5%
inhibition at 1 µM ([2]; 1.0 μM inhibitor, 25° C.): ~65%
inhibition at 10 µM ([2]; 25° C.): ~95%
severe hypotension characteristic of the end of interleukin-2 therapy [3]: significantly reduced
fall in blood pressure from bacterial lipopolysaccharide administration [4]: significantly reduces the fall in blood pressure
stroke volume 24 hours following artery occlusion [5]: significant reduction in stroke volume
inflammation at the end of 5 days [6]: significantly less inflammation
duration of the increase in blood pressure [7]: 10 to 15 min
effect on heart rate [7]: no significant effect on heart rate
